Results published in ChEMBL document CHEMBL1201862, “PubChem BioAssay data set” (2004).
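1) Cells in 96-well plates. 2) Compound, 48 h, 5 concentrations. 3) Linear interpolation between surrounding doses. 4) Unreached endpoint = highest concentration. GI50: concentration for 50% inhibition of growth.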 The source made the active and inactive calls. Rule as the data show it: active = GI50 up to about 1.1 µM and inactive = higher.

Tests used:
Test in all cases: NCI-60 cell line screen, 48 h
EKVX = system: EKVX
CAKI-1 = system: CAKI-1
HOP-62 = system: HOP-62
IGROV-1 = system: IGROV-1
NCI-H522 = system: NCI-H522
RPMI-8226 = system: RPMI-8226
DU-145 = system: DU-145
COLO 205 = system: COLO 205
NCI-H23 = system: NCI-H23
MDA-N = system: MDA-N
UACC-62 = system: UACC-62
OVCAR-4 = system: OVCAR-4
SK-MEL-5 = system: SK-MEL-5
HCT-116 = system: HCT-116
SN12C = system: SN12C
TK-10 = system: TK-10
SW-620 = system: SW-620
BT-549 = system: BT-549
K562 = system: K562
T47D = system: T47D
HCT-15 = system: HCT-15
MDA-MB-435 = system: MDA-MB-435
UO-31 = system: UO-31
LOX IMVI = system: LOX IMVI
Hs-578T = system: Hs-578T
RXF 393 = system: RXF 393
SF-268 = system: SF-268
HL-60 = system: HL-60
KM12 = system: KM12
OVCAR-8 = system: OVCAR-8
Malme-3M = system: Malme-3M
A498 = system: A498
NCI-H460 = system: NCI-H460
SK-MEL-2 = system: SK-MEL-2
OVCAR-5 = system: OVCAR-5
NCI/ADR-RES = system: NCI/ADR-RES
M14 = system: M14
786-0 = system: 786-0
PC-3 = system: PC-3
SF-539 = system: SF-539
MCF7 = system: MCF7
OVCAR-3 = system: OVCAR-3
ACHN = system: ACHN
UACC-257 = system: UACC-257
SR = system: SR
MOLT-4 = system: MOLT-4
NCI-H226 = system: NCI-H226
HT-29 = system: HT-29
HOP-92 = system: HOP-92
CCRF-CEM = system: CCRF-CEM
SK-MEL-28 = system: SK-MEL-28
SNB-19 = system: SNB-19
MDA-MB-231 = system: MDA-MB-231
SF-295 = system: SF-295
SNB-75 = system: SNB-75
SK-OV-3 = system: SK-OV-3
HCC 2998 = system: HCC 2998
A549 = system: A549

`NC(=O)C(Nc1c(Cl)cccc1Cl)c1cc2cc(Br)ccc2nc1Cl` (stereo not drawn) was tested, and the GI50 (EKVX) was 25.8 µM (inactive), the GI50 (CAKI-1) was 76.6 µM (inactive) and the GI50 (HOP-62) was 65.8 µM (inactive). For the same molecule, the GI50 (IGROV-1) was 28.1 µM (inactive), the GI50 (NCI-H522) was 25.9 µM (inactive) and the GI50 (RPMI-8226) was 31.5 µM (inactive). The GI50 (DU-145) was > 100 µM (inactive), the GI50 (COLO 205) was 24.4 µM (inactive) and the GI50 (NCI-H23) was 44.6 µM (inactive). For the same molecule, the GI50 (MDA-N) was 27.6 µM (inactive), the GI50 (UACC-62) was 44.1 µM (inactive) and the GI50 (OVCAR-4) was 46.3 µM (inactive). The GI50 (SK-MEL-5) was 37.5 µM (inactive), the GI50 (HCT-116) was 41.9 µM (inactive) and the GI50 (SN12C) was 63.1 µM (inactive). For the same molecule, the GI50 (TK-10) was 34.6 µM (inactive), the GI50 (SW-620) was 37.6 µM (inactive) and the GI50 (BT-549) was 36.8 µM (inactive). The GI50 (K562) was 29.4 µM (inactive), the GI50 (T47D) was 44.4 µM (inactive) and the GI50 (HCT-15) was 24.4 µM. For the same molecule, the GI50 (MDA-MB-435) was 19.5 µM (inactive), the GI50 (UO-31) was 55 µM (inactive) and the GI50 (LOX IMVI) was 59.6 µM (inactive). For the same molecule, the GI50 (Hs-578T) was 85.3 µM (inactive), the GI50 (RXF 393) was 41.7 µM (inactive) and the GI50 (SF-268) was 49.8 µM (inactive). The GI50 (HL-60) was 28.4 µM (inactive), the GI50 (KM12) was 38 µM (inactive) and the GI50 (OVCAR-8) was 80.7 µM (inactive). The GI50 (Malme-3M) was > 100 µM (inactive), the GI50 (A498) was > 100 µM (inactive) and the GI50 (NCI-H460) was 90.8 µM (inactive). For the same molecule, the GI50 (SK-MEL-2) was 29.6 µM (inactive), the GI50 (OVCAR-5) was > 100 µM (inactive) and the GI50 (NCI/ADR-RES) was 42.5 µM (inactive). For the same molecule, the GI50 (M14) was 33 µM (inactive), the GI50 (786-0) was > 100 µM (inactive) and the GI50 (PC-3) was 38.9 µM (inactive). For the same molecule, the GI50 (SF-539) was 41.7 µM (inactive), the GI50 (MCF7) was 30.1 µM (inactive) and the GI50 (OVCAR-3) was 52.8 µM (inactive). For the same molecule, the GI50 (ACHN) was 80.9 µM (inactive), the GI50 (UACC-257) was 83.2 µM (inactive) and the GI50 (SR) was 12.2 µM (inactive). For the same molecule, the GI50 (MOLT-4) was 20.7 µM (inactive), the GI50 (NCI-H226) was 45.5 µM (inactive) and the GI50 (HT-29) was 52.8 µM (inactive). The GI50 (HOP-92) was 37.7 µM (inactive), the GI50 (CCRF-CEM) was 33.2 µM (inactive) and the GI50 (SK-MEL-28) was > 100 µM (inactive). The GI50 (SNB-19) was 74.3 µM (inactive), the GI50 (MDA-MB-231) was 44.1 µM (inactive) and the GI50 (SF-295) was 58.9 µM (inactive). The GI50 (SNB-75) was > 100 µM (inactive), the GI50 (SK-OV-3) was > 100 µM (inactive) and the GI50 (HCC 2998) was 44.8 µM (inactive). For the same molecule, the GI50 (A549) was 63.1 µM (inactive).
